Two molecules from patent US11964984B2, “TXNIP-TRX complex inhibitors and methods of using the same” (CITY OF HOPE, priority 2020, dated 2024) can be followed below.

Assay [1] concerns TXNIP mRNA. The assay is described as follows: TXNIP mRNA expression in THP1 cells under 25 mM glucose (RT-PCR). It is filed as cell-based, human. The following applies: for TXNIP mRNA expression: concentration range. On the procedure: FIGS. 2A-2B. FIG. 2A: C30 and C38 inhibited TXNIP mRNA expression in THP1 cells. THP1 cells were cultured under 25 mM glucose with the indicated concentrations of compounds for 72 hours. Cells were then collected for total RNA preparation. RT-PCR was performed, and data shown are the mean±SEM from triplicates. Statistical analysis was performed using one-way ANOVA, *p<0.0001. FIG. 2B: C30 and C38 inhibited TNF-α mRNA expression in THP1 cells. THP1 cells were cultured under 25 mM glucose with various concentrations of compounds as indicated for 72 hours and collected for total RNA preparation. RT-PCR was performed, and data shown are the mean±SEM from triplicates. Statistical analysis was performed using one-way ANOVA: *<0.02; **<0.0001.
FIG. 6. C38 analogues effects on TXNIP mRNA expression in THP1 cells. THP1 cells were cultured under 25 mM glucose with 2.5 uM of compounds for 72 h. Total RNA was collected. RT-PCR was performed in triplicate and data shown are the mean±SEM. Statistical analysis was performed using one-way ANOVA: *p<0.0001.
FIG. 7. C38 and analogue E2 effects on TXNIP mRNA levels in THP cells. THP1 cells were cultured under 25 mM glucose with several concentration of C38 and E2 as indicated for 72 hours. Total RNA was prepared. RT-PCR was performed in triplicate and data shown are the mean±SEM. Statistical analysis was performed for each column vs. without compound control using one-way ANOVA: *p<0.0001.
C30 and C38 inhibited TXNIP mRNA expression in THP1 cells.
Discovery of lead compound analogues. A search of chemical libraries was performed in the interest of identifying possible lead compound analogues. Analogues to C38 were identified. To determine the properties of the analogues, we treated THP1 cells with the E batch compounds for three days, prepared RNA and measured TXNIP mRNA levels.
RNA extraction and quantitative RT-PCR. RNA was extracted using the Direct-zol™ RNA MiniPrep Plus (Zymo Research). Reverse transcription of RNA samples into cDNA was performed using the GeneAmp RNA PCR Kit (Applied Biosystems), dNTP (from Roche Applied Science), Rnase inhibitor, MULV Reverse Transcriptase and Random hexamers reagent (all from Invitrogen). Diluted cDNA was quantified using real-time PCR performed with Power SYBR Green qPCR MasterMix (Applied Biosystem) and 7500 real-time PCR system (Applied Biosystems). The HPRT1 gene was used as an internal control.

Assay [2] deals with TXNIP mRNA. The assay is described as follows: TXNIP mRNA in human islets under high glucose plus cytokines. Conditions: 25 mM glucose + TNFα, IL1β, IFNγ, 40 hours. It is filed as cell-based. On the procedure: FIGS. 18A-18B. C30 and C38 compounds protect cells from apoptosis in human islets. 100 IEQ human islets (Hu 1178) were cultured in PIM(R)© containing NG (5.8 mM glucose) or HG (25 mM glucose), and TNFα (20 ng/ml), IL1β (20 ng/ml), IFNγ (200 ng/ml) for 40 hours with or without lead compounds. Total RNA was prepared and RT PCR performed. FIG. 18A: BCL2/BAX ratios are the mean±SEM from triplicates. Statistical analysis was performed for each column vs. HG, 3 cytokines using one-way ANOVA: *p<0.002. FIG. 18B: TXNIP relative mRNA levels. Data shown are the mean±SEM from triplicates. Statistical analysis was performed for each column vs. HG, 3 cytokines using one-way ANOVA: **p<0.0001.
We mimicked T1D conditions in vitro (25 mM glucose, […], […] and […]) to induced apoptosis in human islets (obtained from the Southern California Islet Cell Resources Center at City of Hope). This high glucose/cytokine cocktail was able to induce apoptosis in cultured human islets as indicated by a decrease in the BCL2/BAX ratio (FIG. 18A).

Another assay relates to SOD1 mRNA. The assay is described as follows: SOD1 mRNA in primary human pancreatic islets under 25 mM glucose (RT-PCR). It is filed as cell-based. The following applies: human pancreatic islets (500 IEQ), 2.5 uM, 48 h. On the procedure: FIGS. 12A-12B. […] Human pancreatic islets (500 IEQ) were cultured with PIM(R) (Prodo Labs) medium under 25 mM glucose with 2.5 uM of the indicated compounds for 48 h. Total RNA was collected. RT-PCR was performed in triplicate and data shown are the mean±SEM. Statistical analysis was performed using one-way ANOVA: *p<0.0001. […] Human pancreatic islets (500 IEQ) were cultured with PIM(R) (Prodo Labs) under 25 mM glucose with 2.5 uM of the indicated compounds for 48 h. Total RNA was collected. RT-PCR was performed in triplicate and data shown are the mean+SEM. Statistical analysis was performed using one-way ANOVA: *p<0.0001.
Testing lead compounds in human pancreatic islets. To further explore the effects of the lead compounds as possible therapies in diabetes, we conducted translational studies in primary human pancreatic islets (obtained from the City of Hope islet isolation center).
RNA extraction and quantitative RT-PCR. RNA was extracted using the Direct-zol™ RNA MiniPrep Plus (Zymo Research). […] Diluted cDNA was quantified using real-time PCR performed with Power SYBR Green qPCR MasterMix (Applied Biosystem) and 7500 real-time PCR system (Applied Biosystems). […]

The subject of assay [3] is TXNIP mRNA. The assay is described as follows: TXNIP expression in murine kidneys after oral dosing (RT-PCR). It is filed as in vivo, C57BL/6 mice. Conditions: 90 mg/kg oral gavage daily for five days, 96 hr after last dose. On the procedure:
FIG. 17. Compounds C30 and C38 reduce TXNIP expression in murine kidneys. Twelve male C57BL/6 mice were divided into three groups (vehicle, C30 and C38, 4/group). They received 90 mg/kg dose of compounds daily for five consecutive days. Compounds were given through oral gavage and mice were humanely euthanized 96 hr after the last drug administration. Kidneys were collected for total RNA preparation. RT-PCR was performed in triplicate and data shown are the mean±SEM. Statistical analysis was performed using one-way ANOVA: *p<0.05.
The effects of compounds C30 and C38 at single high dose of 90 mg/kg. Twelve male mice were divided into three groups: 1) Control group (4 mice), 2) compound C30 (4 mice) and 3) compound C38 (4 mice). By oral gavage, animals were given 90 mg/kg of agent daily for 5 consecutive days (vehicle: 30% Solutol in saline). Mice were weighed every day during the treatment period. They were humanely euthanized 96 hours after the last dose. Tissues including the pancreas, liver and kidneys were collected (snap frozen in liquid nitrogen) for RNA extraction. […] Those given compound C30 lost ˜5% of body weight (FIG. 15).
Expression of TXNIP in vivo in treated mice.

For `c1ccc(CCNc2ncnc3c2oc2ccccc23)cc1` [Compound C38], the “TXNIP mRNA expression (C38 analogues screen)” value with TXNIP mRNA [1] (2.5 uM compound, 72 h) is “strongly inhibited TXNIP mRNA expression”. Further, the “TXNIP mRNA expression” value in the assay on TXNIP mRNA [1] (72 hours) is “inhibit TXNIP expression in a dose-dependent manner”. The “TXNIP expression increased during apoptosis” value in the assay with TXNIP mRNA [2] is reported as “significantly ameliorated”. In addition, the “SOD1 mRNA levels” value in the assay on SOD1 mRNA is reported as “does not alter SOD1 mRNA levels”. The “RNA expression level of TXNIP in kidneys” value with TXNIP mRNA [3] is “reduced”.
`COc1cc(N2CC[C@@H](c3ccc4ccccc4c3)[C@H](O)C2)nc(N)n1` [Compound C30]: in the assay on TXNIP mRNA [1] (72 hours), the “concentration at which inhibition of TXNIP mRNA is still effective” value was determined as 0.15 µM and the “TXNIP mRNA expression” value is listed as “inhibit TXNIP expression in a dose-dependent manner”. In addition, the “TXNIP expression increased during apoptosis” value with TXNIP mRNA [2] was “significantly ameliorated”. Moreover, in the assay with SOD1 mRNA, the “SOD1 mRNA levels” value is recorded as “does not alter SOD1 mRNA levels”. The “RNA expression level of TXNIP in kidneys” value in the assay with TXNIP mRNA [3] is “reduced”.
